Like-named read-outs stand apart in the source and are kept apart here.
What was measured:
[1] = biological target: T1, catalytic domain of human Bub1 (amino acids 704-1085) (Homo sapiens, UniProt O43683); experiment: Bub1 kinase assay (TR-FRET); assay type: biochemical
T1 construct: catalytic domain of human Bub1 (amino acids 704-1085); His6 (N); made in house; host or cells: Hi5 insect cells
Protocol: To this end, 100-fold concentrated compound solutions (in DMSO) were previously prepared by serial dilution (1:3.4) of 2 mM stocks in a clear low volume 384-well source microtiter plate (Greiner Bio-One, Frickenhausen, Germany), from which 50 nL of compounds were transferred into a black low volume test microtiter plate from the same supplier. […] The resulting mixture (5 μL final volume) was incubated at 22° C. during 60 min., and the reaction was stopped by the addition of 5 μL of an aqueous EDTA-solution (50 mM EDTA, in 100 mM HEPES pH 7.5 and 0.2% (w/v) bovine serum albumin) which also contained the TR-FRET detection reagents (0.2 μM streptavidin-XL665 [Cisbio Bioassays, Codolet, France] and 1 nM anti-phoshoSerine antibody [Merck Millipore, cat. #35-001] and 0.4 nM LANCE EU-W1024 labeled anti-mouse IgG antibody [Perkin-Elmer, product no. AD0077, alternatively a Terbium-cryptate-labeled anti-mouse IgG antibody from Cisbio Bioassays can be used]). The stopped reaction mixture was further incubated 1 h at 22° C. in order to allow the formation of complexes between peptides and detection reagents. Subsequently, the amount of product was evaluated by measurement of the resonance energy transfer from the Eu-chelate-antibody complex recognizing the Phosphoserine residue to the streptavidin-XL665 bound to the biotin moiety of the peptide.

[2] = tested on: HeLa cell line; experiment: Proliferation assay (HeLa cell line); assay type: cell-based; conditions: Homo sapiens, 96 h, read-out: Biological Assay 2: Proliferation assay (HeLa cell line) median IC50
Protocol: (§1) Cultivated tumor cells (cells were ordered from ATCC, except HeLa-MaTu and HeLa-MaTu-ADR, which were ordered from EPO-GmbH, Berlin) were plated at a density of 1000 to 5000 cells/well, depending on the growth rate of the respective cell line, in a 96-well multititer plate in 200 μL of their respective growth medium supplemented 10% fetal calf serum. After 24 hours, the cells of one plate (zero-point plate) were stained with crystal violet (see below), while the medium of the other plates was replaced by fresh culture medium (200 μL), to which the test substances were added in various concentrations (0 μM, as well as in the range of 0.001-10 μM; the final concentration of the solvent dimethyl sulfoxide was 0.5%). The cells were incubated for 4 days in the presence of test substances. Cell proliferation was determined by staining the cells with crystal violet: the cells were fixed by adding 20 μL/measuring point of an 11% glutaric aldehyde solution for 15 minutes at room temperature. After three washing cycles of the fixed cells with water, the plates were dried at room temperature. The cells were stained by adding 100 μL/measuring point of a 0.1% crystal violet solution (pH 3.0). After three washing cycles of the stained cells with water, the plates were dried at room temperature. The dye was dissolved by adding 100 μl/measuring point of a 10% acetic acid solution. Absorbtion was determined by photometry at a wavelength of 595 nm. The change of cell number, in percent, was calculated by normalization of the measured values to the absorbtion values of the zero-point plate (=0%) and the absorbtion of the untreated (0 μm) cells (=100%). The IC50 values were determined by means of a 4 parameter fit.

[3] = tested on: HeLa-MaTu-ADR cell line; experiment: Proliferation assay (HeLa-MaTu-ADR cell line); assay type: cell-based; conditions: 96 h, read-out: Biological Assay 2: Proliferation assay (HeLa-MaTu-ADR cell line) median IC50
Protocol: as §1

[4] = tested on: NCl-H460 cell line; experiment: Proliferation assay (NCI-H460 cell line); assay type: cell-based; conditions: Homo sapiens, NCI-H460, 96 h, read-out: Biological Assay 2: Proliferation assay (NCl-H460 cell line) median IC50
Protocol: as §1

[5] = tested on: DU145 cell line; experiment: Proliferation assay (DU145 cell line); assay type: cell-based; conditions: Homo sapiens, DU-145, 96 h, read-out: Biological Assay 2: Proliferation assay (DU145 cell line) median IC50
Protocol: as §1

[6] = tested on: Caco2 cell line; experiment: Proliferation assay (Caco2 cell line); assay type: cell-based; conditions: Homo sapiens, Caco-2, 96 h, read-out: Biological Assay 2: Proliferation assay (Caco2 cell line) median IC50
Protocol: as §1

[7] = tested on: B16F10 cell line; experiment: Proliferation assay (B16F10 cell line); assay type: cell-based; conditions: Mus musculus, B16-F10, 96 h, read-out: Biological Assay 2: Proliferation assay (B16F10 cell line) median IC50
Protocol: as §1

[8] = 10 μM ATP, 1 μM peptide substrate, TR-FRET, read-out: Biological Assay 1: Bub1 kinase assay median IC50
[9] = 4 days incubation, crystal violet staining
[10] = HeLa-MaTu-ADR, 4 days incubation, crystal violet staining
[11] = NCl-H460, 4 days incubation, crystal violet staining
[12] = DU145, 4 days incubation, crystal violet staining
[13] = Caco2, 4 days incubation, crystal violet staining
[14] = B16F10, 4 days incubation, crystal violet staining

T1 sequence (O43683 704-1085): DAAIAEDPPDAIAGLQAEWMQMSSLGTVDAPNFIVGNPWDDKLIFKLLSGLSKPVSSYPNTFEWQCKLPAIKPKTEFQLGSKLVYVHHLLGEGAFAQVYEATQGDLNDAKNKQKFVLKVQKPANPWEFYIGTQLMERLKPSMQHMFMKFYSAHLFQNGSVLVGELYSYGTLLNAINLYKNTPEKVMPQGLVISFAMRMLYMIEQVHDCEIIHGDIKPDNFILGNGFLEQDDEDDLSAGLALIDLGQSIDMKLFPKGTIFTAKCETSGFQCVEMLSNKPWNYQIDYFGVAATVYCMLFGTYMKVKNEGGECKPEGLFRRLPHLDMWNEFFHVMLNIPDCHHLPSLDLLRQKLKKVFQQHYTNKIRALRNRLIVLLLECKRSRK

IC50 [1, 8] | IC50 [2] | IC50 [3] | IC50 [4] | IC50 [5] | IC50 [6] | IC50 [7] | IC50 [1] | IC50 [2, 9] | SMILES | IC50 [3, 10] | IC50 [4, 11] | IC50 [5, 12] | IC50 [6, 13] | IC50 [7, 14]
5.3 nM | 5100 nM | 3500 nM | 7400 nM | 6900 nM | 1900 nM | 1800 nM | – | – | CCOc1cc(F)c(Cn2nc(-c3nc(N)c(OC)c(Nc4ccncn4)n3)c(C)c2C2CC2)c(F)c1 [Example 2-1-5, 2-[5-cyclopropyl-1-(4-ethoxy-2,6-difluorobenzyl)-4-methyl-1H-pyrazol-3-yl]-5-methoxy-N-(pyrimidin-4-yl)pyrimidine-4,6-diamine] | – | – | – | – | –
48 nM | 1700 nM | 1100 nM | 1500 nM | 2800 nM | 1400 nM | 1200 nM | – | – | CCNC(=O)Nc1cc(Nc2ccncc2)nc(-c2nn(Cc3c(F)cc(OCC)cc3F)c(C3CC3)c2C)n1 [Example 2-1-10, 1-{2-[5-cyclopropyl-1-(4-ethoxy-2,6-difluorobenzyl)-4-methyl-1H-pyrazol-3-yl]-6-(pyridin-4-ylamino)pyrimidin-4-yl}-3-ethylurea] | – | – | – | – | –
20 nM | 560 nM | 700 nM | 1600 nM | 2100 nM | 2600 nM | 500 nM | – | – | CCOc1cc(F)c(Cn2nc(-c3nc(Nc4ccncn4)cc(Nc4ccncn4)n3)c(C)c2C2CC2)c(F)c1 [Example 2-2-3, 2-[5-cyclopropyl-1-(4-ethoxy-2,6-difluorobenzyl)-4-methyl-1H-pyrazol-3-yl]-N,N′-di(pyrimidin-4-yl)pyrimidine-4,6-diamine] | – | – | – | – | –
– | – | – | – | – | – | – | 220 nM | 7000 nM | CCOc1cc(F)c(Cn2nc(-c3nc(Nc4ccncc4)c(N4CCOCC4)c(Nc4ccncc4)n3)c(C)c2C2CC2)c(F)c1 [Example 2-2-6, 2-[5-cyclopropyl-1-(4-ethoxy-2,6-difluorobenzyl)-4-methyl-1H-pyrazol-3-yl]-5-(morpholin-4-yl)-N,N′-di(pyridin-4-yl)pyrimidine-4,6-diamine] | 820 nM | 1100 nM | 1900 nM | 2600 nM | 990 nM
480 nM | 970 nM | 730 nM | 1200 nM | 1700 nM | 1100 nM | 400 nM | – | – | CCOc1cc(F)c(Cn2nc(-c3nc(Nc4ccncc4)c(OCCOC)c(Nc4ccncc4)n3)c(C)c2C2CC2)c(F)c1 [Example 2-2-12, 2-[5-cyclopropyl-1-(4-ethoxy-2,6-difluorobenzyl)-4-methyl-1H-pyrazol-3-yl]-5-(2-methoxyethoxy)-N,N′-di(pyridin-4-yl)pyrimidine-4,6-diamine] | – | – | – | – | –
– | – | – | – | – | – | – | 42 nM | 4700 nM | CCOc1cc(F)c(Cn2nc(-c3nc(Nc4ccncn4)c(NC(=O)COC)c(Nc4ccncn4)n3)c(C)c2C2CC2)c(F)c1 [Example 2-2-15, N-{2-[5-cyclopropyl-1-(4-ethoxy-2,6-difluorobenzyl)-4-methyl-1H-pyrazol-3-yl]-4,6-bis(pyrimidin-4-ylamino)pyrimidin-5-yl}-2-methoxyacetamide] | – | – | – | – | –
150 nM | 2200 nM | – | – | – | – | – | – | – | CCNC(=O)Nc1c(Nc2ccncc2)nc(-c2nn(Cc3c(F)cc(OCC)cc3F)c(C3CC3)c2C)nc1Nc1ccncc1 [Example 2-2-16, 1-{2-[5-cyclopropyl-1-(4-ethoxy-2,6-difluorobenzyl)-4-methyl-1H-pyrazol-3-yl]-4,6-bis(pyridin-4-ylamino)pyrimidin-5-yl}-3-ethylurea] | – | – | – | – | –
760 nM | > 10000 nM | – | – | – | – | – | – | – | CCOc1cc(F)c(Cn2nc(-c3nc(Nc4ccncc4)c(NS(=O)(=O)CC)c(Nc4ccncc4)n3)c(C)c2C2CC2)c(F)c1 [Example 2-2-17, N-{2-[5-cyclopropyl-1-(4-ethoxy-2,6-difluorobenzyl)-4-methyl-1H-pyrazol-3-yl]-4,6-bis(pyridin-4-ylamino)pyrimidin-5-yl}ethanesulfonamide] | – | – | – | – | –
13000 nM | 3000 nM | – | – | – | – | – | – | – | CCOc1cc(F)c(Cn2nc(-c3nc(Nc4ccncc4)c(NS(=O)(=O)C(F)(F)F)c(Nc4ccncc4)n3)c(C)c2C2CC2)c(F)c1 [Example 2-2-18, N-{2-[5-cyclopropyl-1-(4-ethoxy-2,6-difluorobenzyl)-4-methyl-1H-pyrazol-3-yl]-4,6-bis(pyridin-4-ylamino)pyrimidin-5-yl}-1,1,1-trifluoromethanesulfonamide] | – | – | – | – | –

SMILES | IC50 [1, 8] | IC50 [2] | IC50 [3] | IC50 [4] | IC50 [5] | IC50 [6] | IC50 [7] | IC50 [1] | IC50 [2, 9] | IC50 [3, 10] | IC50 [4, 11] | IC50 [5, 12] | IC50 [6, 13] | IC50 [7, 14]
CCOc1cc(F)c(Cn2nc(-c3nc(Nc4ccncn4)nc(Nc4ccncn4)n3)c(C)c2C2CC2)c(F)c1 [Example 2-2-9, 6-[5-cyclopropyl-1-(4-ethoxy-2,6-difluorobenzyl)-4-methyl-1H-pyrazol-3-yl]-N,N′-di(pyrimidin-4-yl)-1,3,5-triazine-2,4-diamine] | – | 1700 nM | – | – | – | – | – | 1700 nM | – | 10000 nM | 9900 nM | 3200 nM | 3500 nM | 8800 nM

From patent US20160145267A1, “HETEROARYL SUBSTITUTED PYRAZOLES” (BAYER PHARMA AKTIENGESELLSCHAFT, priority 2013, published 2016)
